This note sets out measurements from US7696246B2 (Ligand Pharmaceuticals Incorporated, priority 1999, dated 2010).

In test [1] the target is T1, PR (Homo sapiens, UniProt P06401).
T1 sequence (P06401 1-933): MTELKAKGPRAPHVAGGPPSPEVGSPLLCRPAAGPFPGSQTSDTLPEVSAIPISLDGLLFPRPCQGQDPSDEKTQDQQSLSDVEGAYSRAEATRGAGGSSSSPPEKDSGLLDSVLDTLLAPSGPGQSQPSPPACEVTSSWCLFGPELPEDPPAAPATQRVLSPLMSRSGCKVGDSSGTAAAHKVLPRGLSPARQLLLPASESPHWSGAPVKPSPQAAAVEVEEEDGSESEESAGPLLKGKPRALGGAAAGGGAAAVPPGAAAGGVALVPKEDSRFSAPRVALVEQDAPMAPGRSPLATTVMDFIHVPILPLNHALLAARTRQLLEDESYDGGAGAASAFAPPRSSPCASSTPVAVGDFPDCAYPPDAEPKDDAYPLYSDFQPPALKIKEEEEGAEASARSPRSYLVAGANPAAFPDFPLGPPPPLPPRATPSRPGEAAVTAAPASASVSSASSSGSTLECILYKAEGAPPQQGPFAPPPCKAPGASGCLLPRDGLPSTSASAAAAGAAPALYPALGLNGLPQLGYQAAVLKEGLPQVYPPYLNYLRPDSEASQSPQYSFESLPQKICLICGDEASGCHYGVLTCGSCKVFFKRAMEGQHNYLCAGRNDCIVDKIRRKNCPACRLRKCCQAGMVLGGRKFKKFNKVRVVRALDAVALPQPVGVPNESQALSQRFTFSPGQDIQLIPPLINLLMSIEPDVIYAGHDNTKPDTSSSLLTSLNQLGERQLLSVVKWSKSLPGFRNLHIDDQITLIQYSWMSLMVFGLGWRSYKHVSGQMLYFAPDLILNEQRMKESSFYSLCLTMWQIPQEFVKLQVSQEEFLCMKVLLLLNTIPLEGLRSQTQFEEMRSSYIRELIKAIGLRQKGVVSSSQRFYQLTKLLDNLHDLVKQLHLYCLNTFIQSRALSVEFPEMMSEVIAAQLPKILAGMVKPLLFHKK
Put plainly: PR competitive binding assay. To be noted: Cheng-Prusoff.
Method: After correcting for non-specific binding, IC50 values were determined. […] The IC50 value was determined graphically from a log-logit plot of the data. The Ki values were determined by application of the Cheng-Prusoff equivuation to the IC50 values, the labeled ligand concentration and the Kd of the labeled ligand.

Test [2] concerns the target T1, PR. Put plainly: Co-transfection assay, PR antagonist activity (CV-1 cells, in presence of progesterone). It counts as cell-based. Details: expressed in transfected cells; host or cells: CV-1 cells. To be noted: for PR Antagonist CV-1 Cells Efficacy (%): percent maximal inhibition, progesterone at its EC50.
Test [3] concerns the target T1, PR. Briefly: Co-transfection assay, PR agonist activity (CV-1 cells). It counts as cell-based. Details: expressed in transfected cells; host or cells: CV-1 cells. To be noted: for EC50: agonist potency EC50; for PR Agonist CV-1 Cells Efficacy (%): percent maximal response relative to reference agonist progesterone.
The target of test [4] is T2, human AR (Homo sapiens, UniProt P10275).
T2 sequence (P10275 1-920): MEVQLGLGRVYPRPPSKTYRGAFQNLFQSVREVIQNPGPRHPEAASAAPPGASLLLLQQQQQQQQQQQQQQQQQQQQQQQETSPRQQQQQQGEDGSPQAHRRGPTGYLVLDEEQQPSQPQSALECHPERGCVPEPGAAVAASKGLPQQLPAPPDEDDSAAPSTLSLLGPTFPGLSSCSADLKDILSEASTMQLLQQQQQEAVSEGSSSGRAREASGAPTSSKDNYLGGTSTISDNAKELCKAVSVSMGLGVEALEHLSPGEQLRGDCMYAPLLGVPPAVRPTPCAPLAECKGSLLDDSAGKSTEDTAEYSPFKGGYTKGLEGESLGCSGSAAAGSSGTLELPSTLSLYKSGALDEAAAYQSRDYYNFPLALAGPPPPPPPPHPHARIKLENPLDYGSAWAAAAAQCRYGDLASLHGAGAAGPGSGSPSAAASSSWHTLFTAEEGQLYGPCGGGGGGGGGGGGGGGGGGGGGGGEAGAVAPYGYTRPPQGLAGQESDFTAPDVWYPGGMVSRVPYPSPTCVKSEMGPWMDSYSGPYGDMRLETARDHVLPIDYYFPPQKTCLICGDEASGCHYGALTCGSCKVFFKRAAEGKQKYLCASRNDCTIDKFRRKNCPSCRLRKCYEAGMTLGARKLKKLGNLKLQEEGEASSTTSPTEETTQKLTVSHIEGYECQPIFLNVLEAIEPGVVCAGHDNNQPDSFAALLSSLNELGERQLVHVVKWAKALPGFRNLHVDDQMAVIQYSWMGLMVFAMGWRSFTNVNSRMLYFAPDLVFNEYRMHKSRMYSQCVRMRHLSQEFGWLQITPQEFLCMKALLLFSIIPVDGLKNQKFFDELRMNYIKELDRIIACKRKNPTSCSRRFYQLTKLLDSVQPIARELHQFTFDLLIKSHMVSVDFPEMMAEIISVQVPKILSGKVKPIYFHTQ
Briefly: AR whole cell competitive binding assay (COS-1 cells, 3H-DHT). To be noted: 1 nM 3H-DHT, Cheng-Prusoff.

Test [5] deals with T2, human AR. Briefly: Co-transfection assay, AR antagonist activity (CV-1 cells, in presence of DHT). The class given is cell-based. To be noted: for AR Antagonist CV-1 Cells Efficacy (%): percent maximal inhibition, DHT at its EC50; for IC50: read-out: AR Antagonist CV-1 Cells Potency.
The target in test [6] is T2, human AR. Put plainly: Co-transfection assay, AR agonist activity (CV-1 cells, MTV-LUC reporter). It counts as cell-based. To be noted: CV-1 cells; for EC50: agonist potency EC50.
The mark [7] stands for this setting: read-out: PR Antagonist CV-1 Cells Potency.

Like-named read-outs stand apart in the source and are kept apart here. Bounds are passed on as bounds.

The compound `CCCC(C)N(CCC)c1ccc2[nH]c(=O)cc(C(F)(F)F)c2c1` (racemic) [Compound 251, (±)-6-(N-Propyl-N-1-methylbutyl)amino-4-trifluoromethyl-2(1H)-quinolinone] came in with a Ki at PR [1] of 930 nM. Moreover, on PR [2], the IC50 was 747 nM and the “PR Antagonist CV-1 Cells Efficacy (%)” value amounted to 91%. At PR [3], the EC50 was greater than 10000 nM; the “PR Agonist CV-1 Cells Efficacy (%)” value is “na (na = not active (i.e. efficacy of <20 and potency of >10,000))”.

`CC1(C)OC(=S)Nc2ccc(C3=CC(O)CCC3)cc21` (racemic) [Compound 697, (±)-6-(3-Hydroxy-1-)cyclohexenyl-1,4-dihydro-4,4-dimethyl-1,3-benzo[d]oxazin-2-thione] had a Ki on PR [1] greater than 1000 nM. The “PR Antagonist CV-1 Cells Efficacy (%)” value on PR [2] amounted to 58%. The IC50 at PR [2] (setting [7]) worked out at 316 nM. Also, on PR [3], the EC50 was greater than 10000 nM; the “PR Agonist CV-1 Cells Efficacy (%)” value was “na (na = not active (i.e. efficacy of <20 and potency of >10,000))”.

As for `CCN(CC(C)(C)C)c1ccc2[nH]c(=O)cc(C(F)(F)F)c2c1` [Compound 242, 6-(N-Ethyl-N-2,2-dimethylpropyl)amino-4-trifluoromethyl-2(1H)-quinolinone], affinity at PR [1] was put at a Ki of 70 nM. On PR [2], the IC50 stood at 200 nM and the “PR Antagonist CV-1 Cells Efficacy (%)” value amounted to 95%. For the same compound, at human AR [4], the affinity, expressed as Ki, was 32 nM. Besides, at PR [3], the EC50 was greater than 10000 nM; the “PR Agonist CV-1 Cells Efficacy (%)” value is “na (na = not active (i.e. efficacy of <20 and potency of >10,000))”. Moreover, at human AR [5], the “AR Antagonist CV-1 Cells Efficacy (%)” value is “na (na = not active (i.e. efficacy of <20 and potency of >10,000))”; the IC50 is greater than 10000 nM. The EC50 on human AR [6] was determined as 2.8 nM. Further, the “AR Agonist CV-1 Cells Efficacy (%)” value on human AR [6] (percent maximal response relative to reference agonist DHT) was 66%.

The compound `CC(C)CN(CC(F)(F)F)c1cc2c(C(F)(F)F)cc(=O)[nH]c2cc1O` [Compound 473, 6-(N-Isobutyl-N-2,2,2-trifluoroethyl)amino-7-hydroxy-4-trifluoromethyl-2(1H)-quinolinone] gave a Ki at PR [1] of 508 nM. Further, on PR [2], the IC50 turned out to be 880 nM and the “PR Antagonist CV-1 Cells Efficacy (%)” value is 55%. For the same compound, at PR [3], the EC50 is greater than 10000 nM; the “PR Agonist CV-1 Cells Efficacy (%)” value is “na (na = not active (i.e. efficacy of <20 and potency of >10,000))”.

`FC(F)(F)c1cc(=S)[nH]c2ccc(C3CCCCC3)cc12` [Compound 631, 6-Cyclohexyl-4-trifluoromethyl-2(1H)-thioquinolinone] yielded a Ki at PR [1] of 136 nM. Also, on PR [2], the IC50 was determined as 796 nM and the “PR Antagonist CV-1 Cells Efficacy (%)” value amounted to 75%. At PR [3], the EC50 was greater than 10000 nM; the “PR Agonist CV-1 Cells Efficacy (%)” value is “na (na = not active (i.e. efficacy of <20 and potency of >10,000))”.

For `CC1(C)OC(=O)Nc2ccc(C3=CCCCC3)cc21` [Compound 667, 6-(1-Cyclohexenyl)-1,4-dihydro-4,4-dimethyl-1,3-benzo[d]oxazin-2-one], the results for the Ki at PR [1] and on human AR [4] were 144 nM and 7.4 nM, respectively. Besides, the “PR Antagonist CV-1 Cells Efficacy (%)” value at PR [2] was found to be 89%. The IC50 on PR [2] (setting [7]) is 70 nM; on human AR [5], 27 nM. Further, the EC50 at PR [3] and on human AR [6] was greater than 10000 nM in each case. Further, the “PR Agonist CV-1 Cells Efficacy (%)” value at PR [3] is “na (na = not active (i.e. efficacy of <20 and potency of >10,000))”. Moreover, the “AR Antagonist CV-1 Cells Efficacy (%)” value on human AR [5] was found to be 89%.

Take `CC1(C)OC(=O)Nc2ccc(C3CCCCCC3)cc21` [Compound 671, 6-(1-Cycloheptyl)-1,4-dihydro-4,4-dimethyl-1,3-benzo[d]oxazin-2-one]: the Ki on PR [1] is greater than 1000 nM. Besides, the “PR Antagonist CV-1 Cells Efficacy (%)” value on PR [2] is 62%. For the same compound, at PR [2] (setting [7]), the IC50 stood at 200 nM. Also, at PR [3], the EC50 is greater than 10000 nM; the “PR Agonist CV-1 Cells Efficacy (%)” value was “na (na = not active (i.e. efficacy of <20 and potency of >10,000))”.

For the compound `CC1(C)OC(=S)Nc2ccc(C3=CC(=O)CCC3)cc21` [Compound 695, 6-(3-Oxo-1-)cyclohexenyl-1,4-dihydro-4,4-dimethyl-1,3-benzo[d]oxazin-2-thione], at PR [1], the affinity, expressed as Ki, was 203 nM. The “PR Antagonist CV-1 Cells Efficacy (%)” value on PR [2] is on record as 90%. Besides, the IC50 on PR [2] (setting [7]) is 20 nM. At PR [3], the EC50 is greater than 10000 nM; the “PR Agonist CV-1 Cells Efficacy (%)” value is “na (na = not active (i.e. efficacy of <20 and potency of >10,000))”.

In the case of `O=c1cc(C(F)(F)F)c2cc(-c3cccc([N+](=O)[O-])c3)ccc2[nH]1` [Compound 727, 4-Trifluoromethyl-6-(3-nitro)phenyl-2(1H)-quinolinone], the affinity on PR [1], expressed as Ki, was 161 nM. In addition, on PR [2], the IC50 was determined as 108 nM and the “PR Antagonist CV-1 Cells Efficacy (%)” value worked out at 90%. On PR [3], the EC50 was greater than 10000 nM; the “PR Agonist CV-1 Cells Efficacy (%)” value was “na (na = not active (i.e. efficacy of <20 and potency of >10,000))”.

`N#Cc1cc(F)cc(-c2ccc3[nH]c(=O)cc(C(F)(F)F)c3c2)c1` [Compound 731, 4-Trifluoromethyl-6-(3-fluoro-5-cyano)phenyl-2(1H)-quinolinone] yielded a Ki at PR [1] of 154 nM. For the same compound, at PR [2], the IC50 turned out to be 64 nM and the “PR Antagonist CV-1 Cells Efficacy (%)” value was found to be 89%. For the same compound, at PR [3], the EC50 is greater than 10000 nM; the “PR Agonist CV-1 Cells Efficacy (%)” value was “na (na = not active (i.e. efficacy of <20 and potency of >10,000))”.

As to `CC(=O)c1cccc(-c2ccc3[nH]c(=O)cc(C(F)(F)F)c3c2)c1` [Compound 735, 4-Trifluoromethyl-6-(3-acetylphenyl)-2(1H)-quinolinone], the Ki on PR [1] stood at 915 nM. Besides, on PR [2], the IC50 worked out at 326 nM and the “PR Antagonist CV-1 Cells Efficacy (%)” value is reported as 84%. On PR [3], the EC50 was greater than 10000 nM; the “PR Agonist CV-1 Cells Efficacy (%)” value was “na (na = not active (i.e. efficacy of <20 and potency of >10,000))”.

In the case of `CC(=O)[C@H]1CC[C@H]2[C@@H]3CCC4=CC(=O)CC[C@]4(C)[C@H]3CC[C@]12C` [Prog, progesterone, reference compound], the “PR Antagonist CV-1 Cells Efficacy (%)” value at PR [2] was “na (na = not active (i.e. efficacy of <20 and potency of >10,000))”. Besides, the “PR Agonist CV-1 Cells Efficacy (%)” value on PR [3] is given as 100%.

For the compound `CN(C)c1ccc([C@H]2C[C@]3(C)[C@@H](CC[C@]3(O)CCCO)[C@@H]3CCC4=CC(=O)CCC4=C32)cc1` [ZK299, reference compound], the “PR Antagonist CV-1 Cells Efficacy (%)” value at PR [2] was determined as 95%. The “PR Agonist CV-1 Cells Efficacy (%)” value at PR [3] was “na (na = not active (i.e. efficacy of <20 and potency of >10,000))”.
